Source: patent US20260217706A1, “HETEROCYCLIC COMPOUNDS, PREPARATION METHOD THEREFOR AND USE THEREOF” (GUANGZHOU YUFAN NANTU BIOTECHNOLOGIES CO., LTD, priority 2023, published 2026)

biological target: CBL-B protein (Homo sapiens, UniProt Q13191); experiment: CBL-B binding experiment (Streptavidin-Tb cryptate / Ligand L1 displacement); details: 8 nM CBL-B protein, 25° C., 60 minutes; Ki=Relative IC50/2
Experimental: The reaction system mainly includes 1× buffer, 20 mM HEPES pH 7.5, 150 mM NaCl, 0.01% Triton X-100, 0.5 mM TCEP, and 0.1% ug/ml BSA. The compound is continuously diluted with DMSO for 10 concentration points, and 150 nL is transferred to the experimental plate. The experimental reaction begins after adding 8 nM of CBL-B protein and the reaction is carried out at 25° C. for 60 minutes. […] After an additional 60 minutes of incubation at room temperature, the experimental plate is read using an EnVision plate. The luminescence signal values were converted to percentage inhibition rates. Inhibition %=(Sample value−Maximum value)/(Minimum value−Maximum value)×100. The minimum value refers to the measured value in the wells without CBL-B protein but with DMSO and Ligand, while the maximum value refers to the measured value in the wells with DMSO, CBL-B protein, and Ligand. The IC50 values are calculated by XLFit (version 5.3.1.3) in Excel. Equation: Y=Bottom+(Top−Bottom)/(1+(IC50/X)^HillSlope); Ki=Relative IC50/2.

Sequence of CBL-B protein (Q13191 whole entry): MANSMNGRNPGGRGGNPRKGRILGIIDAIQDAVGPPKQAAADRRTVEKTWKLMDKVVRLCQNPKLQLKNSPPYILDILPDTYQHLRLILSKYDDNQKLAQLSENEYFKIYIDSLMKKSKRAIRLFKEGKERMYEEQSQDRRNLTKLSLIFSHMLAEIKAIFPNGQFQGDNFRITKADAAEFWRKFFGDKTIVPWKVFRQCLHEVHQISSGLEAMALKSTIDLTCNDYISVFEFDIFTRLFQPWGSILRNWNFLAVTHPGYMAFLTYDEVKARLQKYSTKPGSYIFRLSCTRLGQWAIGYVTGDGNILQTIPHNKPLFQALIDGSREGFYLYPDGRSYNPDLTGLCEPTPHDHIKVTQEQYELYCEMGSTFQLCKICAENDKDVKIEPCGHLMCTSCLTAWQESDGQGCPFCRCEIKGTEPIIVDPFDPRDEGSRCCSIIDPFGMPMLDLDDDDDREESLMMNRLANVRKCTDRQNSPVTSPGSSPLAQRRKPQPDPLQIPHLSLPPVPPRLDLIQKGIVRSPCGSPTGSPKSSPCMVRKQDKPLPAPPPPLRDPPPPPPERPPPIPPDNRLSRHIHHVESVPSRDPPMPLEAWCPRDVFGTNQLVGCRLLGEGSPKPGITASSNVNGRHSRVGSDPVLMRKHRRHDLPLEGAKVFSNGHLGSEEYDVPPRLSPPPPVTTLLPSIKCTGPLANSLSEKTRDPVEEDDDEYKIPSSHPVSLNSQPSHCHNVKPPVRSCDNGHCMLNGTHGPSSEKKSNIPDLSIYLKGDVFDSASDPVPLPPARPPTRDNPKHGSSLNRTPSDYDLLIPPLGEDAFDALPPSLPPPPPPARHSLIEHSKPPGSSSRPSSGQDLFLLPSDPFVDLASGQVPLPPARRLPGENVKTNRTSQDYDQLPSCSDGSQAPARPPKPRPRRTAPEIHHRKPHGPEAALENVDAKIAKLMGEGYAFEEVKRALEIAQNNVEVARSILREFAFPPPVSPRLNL

Ki, < 50 nM:
Cn1cnnc1C1(c2cccc(-n3cc(C(F)(F)F)c4cc(CN5CCC[C@@](C)(O)C5)[nH]c4c3=O)c2)CCC1 [Compound T065, 2-[[(3R)-3-hydroxy-3-methyl-1-piperidyl]methyl]-6-[3-[1-(4-methyl-1,2,4-triazol-3-yl)cyclobutyl]phenyl]-4-(trifluoromethyl)-1H-pyrrolo[2,3-c]pyridin-7-one]
Cn1cnnc1C1(c2cccc(-n3cc(C(F)(F)F)c4cc(CN5CC[C@@H](O)[C@@H](F)C5)[nH]c4c3=O)c2)CCC1 [Compound T072, 2-(((3 S,4R)-3-fluoro-4-hydroxypiperidin-1-yl)methyl)-6-(3-(1-(4-methyl-4H-1,2,4-triazol-3-yl)cyclobutyl)phenyl)-4-(trifluoromethyl)-1,6-dihydro-7H-pyrrolo[2,3-c]pyridin-7-one]
C[C@H]1CCCN(Cc2cc3c(C(F)(F)F)cn(-c4ccc([C@]5(c6nncn6C)C[C@@H](C)C5)s4)c(=O)c3[nH]2)C1 [Compound T073, 6-(5-((1r,3S)-3-methyl-1-(4-methyl-4H-1,2,4-triazol-3-yl)cyclobutyl)thiophen-2-yl)-2-(((S)-3-methylpiperidin-1-yl)methyl)-4-(trifluoromethyl)-1,6-dihydro-7H-pyrrolo[2,3-c]pyridin-7-one]
C[C@H]1CCCN(Cc2cc3c(C(F)(F)F)cn(-c4ccc([C@]5(c6nncn6C)C[C@H](C)C5)s4)c(=O)c3[nH]2)C1 [Compound T074, 6-(5-((1s,3R)-3-methyl-1-(4-methyl-4H-1,2,4-triazol-3-yl)cyclobutyl)thiophen-2-yl)-2-(((S)-3-methylpiperidin-1-yl)methyl)-4-(trifluoromethyl)-1,6-dihydro-7H-pyrrolo[2,3-c]pyridin-7-one]
Cn1cnnc1C1(c2cccc(-n3cc(C(F)(F)F)c4cc(CN5CCC(F)(F)CC5)[nH]c4c3=O)c2)CCC1 [Compound T075, 2-[(4,4-difluoro-1-piperidyl)methyl]-6-[3-[1-(4-methyl-1,2,4-triazol-3-yl)cyclobutyl]phenyl]-4-(trifluoromethyl)-1H-pyrrolo[2,3-c]pyridin-7-one]
C[C@H]1CCCN(Cc2cc3c(C(F)(F)F)cn(-c4cccc(-c5ccccc5-c5nncn5C)c4)c(=O)c3[nH]2)C1 [Compound T076, 2-[[(3S)-3-methyl-1-piperidyl]methyl]-6-[3-[2-(4-methyl-1,2,4-triazol-3-yl)phenyl]phenyl]-4-(trifluoromethyl)-1H-pyrrolo[2,3-c]pyridin-7-one]
C[C@@H]1CN(Cc2cc3c(C4CC4)cn(-c4cccc(C5(Cc6nncn6C)COC5)c4)c(=O)c3[nH]2)CCC1(F)F [Compound T078, (R)-4-cyclopropyl-2-((4,4-difluoro-3-methylpiperidin-1-yl)methyl)-6-(3-(3-((4-methyl-4H-1,2,4-triazol-3-yl)methyl)oxetan-3-yl)phenyl)-1,6-dihydro-7H-pyrrolo[2,3-c]pyridin-7-one]
C[C@H]1CN(Cc2cc3c(C4CC4)cn(-c4cccc(C5(Cc6nncn6C)COC5)c4)c(=O)c3[nH]2)CCC1(F)F [Compound T079, (S)-4-cyclopropyl-2-((4,4-difluoro-3-methylpiperidin-1-yl)methyl)-6-(3-(3-((4-methyl-4H-1,2,4-triazol-3-yl)methyl)oxetan-3-yl)phenyl)-1,6-dihydro-7H-pyrrolo[2,3-c]pyridin-7-one]
Cn1cnnc1C1(c2cccc(-n3cc(C(F)(F)F)c4cc(CN5CCC[C@H](CC#N)C5)[nH]c4c3=O)c2)CCC1 [Compound T081, (R)-2-(1-((6-(3-(1-(4-methyl-4H-1,2,4-triazol-3-yl)cyclobutyl)phenyl)-7-oxo-4-(trifluoromethyl)-6,7-dihydro-1H-pyrrolo[2,3-c]pyridin-2-yl)methyl)piperidin-3-yl)acetonitrile]
